Data taken from US20230265524A1, “IMMUNOGENIC RETROELEMENTS AND THEIR USE IN CANCER THERAPY” (UNIVERSITY HEALTH NETWORK, priority 2020, published 2023).

Legend:
[1] = test system: patient-derived CRC cells; assay: in vivo LDA measuring tumour-initiation potential; parameters: species or system NSG mice
Description: F Schematic representation of in vivo LDA measuring tumour-initiation potential. NSG mice were injected with 10,000 cells (n=8 tumours), 1,000 cells (n=8 tumours), 100 cells (n=8 tumours) and 10 cells (n=16 tumours).
G, Tumour-initiating cell frequency from the in vivo LDA of patient-derived CRC cells for each condition. ADAR1WT 5-AZA-CdR vs ADAR1KDA 5-AZA-CdR P=0.00862; ADAR1WT 5-AZA-CdR vs ADAR1KDB 5-AZA-CdR P=0.009; chi-square test.
One of the major challenges facing conventional chemotherapy is the persistence of cancer initiating cells (CICs), often resulting in relapse^38-40. We and others have previously shown that 5-AZA-CdR treatment can target colorectal cancer CICs by inducing the viral mimicry response^1,41. We therefore tested whether ADAR1^KD by itself or in combination with 5-AZA-CdR can decrease tumour initiation. To this end, we first employed an in vitro sphere initiation assay followed by limiting dilution analysis (LDA) using patient-derived CRC cells. […] In addition, we performed in vivo tumour initiation assays by injecting serially diluted patient-derived CRC cells into NSG immunodeficient mice and inspected tumour engraftment for up to 6 months after injection (FIG. 12F).

[2] = test system: patient-derived colorectal cancer cells (CRCs); assay: total stranded RNA-seq of repeat element expression after 5-AZA-CdR; type: cell-based, human; settings: low doses of 5-AZA-CdR, 5 days, vs mock-treated
Description: A, Effect of 5-AZA-CdR on repeat element expression in patient-derived xenograft colorectal cancer cells after 5 days of treatment. Plots show log (fold change) for 5-AZA-CdR treated cells over mock-treated cells for anti-sense (y-axis) and sense (x-axis) transcripts of each SINE, LINE and ERV repeat element (CPM). […] The significance was determined as p≤0.05 and |log FC|≥1 at each strand.
To identify drug-induced immunogenic retroelements on a global scale, we examined the endogenous dsRNA formation in patient-derived colorectal cancer cells (CRCs) that were treated with low doses of 5-AZA-CdR, an FDA-approved DNMTi, or mock-treated. To this end, we performed total stranded RNA-seq and assessed repetitive elements transcribed in both strands, therefore likely to produce dsRNA species.

[3] = test system: ADAR1; assay: genome-wide A-to-I editing loci counts in Alus (RNA-seq); type: cell-based, human
From the text: G, Genome-wide A-to-I editing loci counts in Alus in the RNA-seq data performed in the total cytoplasmic fraction (‘Total CytoRNA’) and in the MDA5-protected fraction (‘MDA5-protected’) at the mock-treated (MT) ADAR1^WT, 5-AZA-CdR-treated ADAR1^WT, mock-treated ADAR1^KD, and 5-AZA-CdR-treated ADAR1^KD conditions.
Next, we tested whether epigenetic therapy can induce and activate ADAR1 editing activity.

[4] = test system: interferon stimulated genes (ISG15, DDX58 and IRF7); assay: interferon response / ISG expression by RNA-seq GSEA and qRT-PCR in patient-derived CRC cells; type: cell-based, human
From the text: H, Geneset Enrichment Analysis showing an enrichment of the geneset ‘Hallmark_Interferon_Alpha_Response’ in ADAR1^KD 5-AZA-treated cells compared to ADAR1^WT 5-AZA-CdR treated cells.
I, Interferon-responsive geneset enrichment score in mock-treated ADAR1^WT, 5-AZA-CdR-treated ADAR1^WT, mock-treated ADAR1^KD, and 5-AZA-CdR-treated ADAR1^KD conditions. Samples were collected 5, 14, and 24 days post-treatment.
B, Kinetics of interferon stimulated genes (ISG15, DDX58 and IRF7) relative expression in ADAR1^WT (Black) and ADAR1^KD (Gray) patient-derived colorectal cancer cells (CRCs) treated with 5-AZA-CdR analyzed by qRT-PCR. Data are mean±s.e.m. (n=3 from three independent experiments). *P<0.05, **P<0.01, ****P<0.0001, Sidak-corrected two-way ANOVA.
C, Interferon-responsive gene expression in ADAR1^WT mock-treated (MT), 5-AZA-CdR treated, ADAR1^KD NT and ADAR1^KD p(I:C) transfected samples collected 5 days, 14 days and 24 days post-treatment, measured by RNA-seq.
D, Kinetics of interferon stimulated genes (ISG15, DDX58 and IRF7) relative expression in ADAR1^WT (Black) and ADAR1^KD (Gray) patient-derived CRCs transfected with p(I:C), analyzed by qRT-PCR. Data are mean±s.e.m. **P<0.01, ****P<0.0001, Sidak-corrected two-way ANOVA.
F, Interferon stimulated genes (ISG15, DDX58 and IRF7) relative expression in CTRL (LUC) (Black) and ADAR1^p150CE (Gray) patient-derived CRCs treated with 5-AZA-CdR, analyzed by qRT-PCR. Data are mean±s.e.m. **P<0.01, ***P<0.001, Sidak-corrected two-way ANOVA.
G, IFN enrichment score in CTRL(LUC) Mock-treated, 5-AZA-CdR treated, ADAR1-p150 overexpressing NT and ADAR1-p150 overexpressing 5-AZA-CdR treated samples collected 5 days post-treatment and measured by RNA-seq.
(§1) Based on these findings, we hypothesized that ADAR1 depletion would synergize with the viral mimicry response induced by DNMTi treatment. To assess how ADAR1 depletion affects 5-AZA-CdR treated samples, we performed RNA-seq analyses in patient-derived CRC cells. […] As a molecular read-out of dsRNA pattern recognition activation, we measured MAVS aggregation in the mitochondrial fraction of cell lysates^34. […] Taken together, our findings establish that ADAR1 acts as a negative feedback loop, restricting the viral mimicry response induced by DNMTi treatment in cancer cells.

[5] = test system: MAVS; assay: MAVS aggregation by SDS-AGE; type: cell-based, human; settings: ADAR1-depleted, mitochondrial fraction of cell lysates
From the text: J, MAVS aggregation analyzed by SDS-AGE and MAVS protein level analyzed by SDS-PAGE. VDAC served as a loading control in SDS-PAGE.
as §1

[6] = test system: LIM1215 colorectal cancer cell lines; assay: ISG relative expression in LIM1215 cells; type: cell-based, human; settings: LIM1215, ADAR1 KD vs WT, 300 nM for 5 days
Description: B) Interferon-stimulated genes (MDA5, IRF7 and DDX58) relative expression in ADAR1^WT and ADAR1^KD LIM1215 colorectal cancer cell lines treated with 300 nM 5-AZA-CdR for 5 days.
as §1

## Nc1ncn([C@H]2C[C@H](O)[C@@H](CO)O2)c(=O)n1 [5-AZA-CdR]
[1]; ADAR1^KDA, 10 cells injected
  Number of Engrafted tumours/number of injected tumours: 0/16
[1]; ADAR1^KDA, 100 cells injected
  Number of Engrafted tumours/number of injected tumours: 0/8
[1]; ADAR1^KDA, 1,000 cells injected
  Number of Engrafted tumours/number of injected tumours: 3/8
[1]; ADAR1^KDA, 10,000 cells injected
  Number of Engrafted tumours/number of injected tumours: 5/8
[1]; ADAR1^KDA/B cells relative to wild-type, up to 6 months
  tumour engraftment potential: substantially reduced tumour engraftment potential
[1]; ADAR1^KDB, 10 cells injected
  Number of Engrafted tumours/number of injected tumours: 0/16
[1]; ADAR1^KDB, 100 cells injected
  Number of Engrafted tumours/number of injected tumours: 0/8
[1]; ADAR1^KDB, 1,000 cells injected
  Number of Engrafted tumours/number of injected tumours: 1/8
[1]; ADAR1^KDB, 10,000 cells injected
  Number of Engrafted tumours/number of injected tumours: 6/8
[1]; ADAR1^WT, 10 cells injected
  Number of Engrafted tumours/number of injected tumours: 0/16
[1]; ADAR1^WT, 100 cells injected
  Number of Engrafted tumours/number of injected tumours: 3/8
[1]; ADAR1^WT, 1,000 cells injected
  Number of Engrafted tumours/number of injected tumours: 5/8
[1]; ADAR1^WT, 10,000 cells injected
  Number of Engrafted tumours/number of injected tumours: 7/8
[2]
  sense and/or antisense transcription of repeat elements (LINEs, ERVs, SINEs): increased sense and/or antisense transcription of long interspersed nuclear elements (LINEs) and ERVs, but not short interspersed nuclear elements (SINEs)
[3]; ADAR1-depleted cells
  A-to-I editing of MDA5-protected Alus: depletion of ADAR1 abrogated this effect
[3]; ADAR1 WT cells
  A-to-I editing of MDA5-protected Alus: genome-wide increased A-to-I editing
[4]; ADAR1-depleted vs wild-type samples, both treated with 5-AZA-CdR
  type I interferon response (GSEA): the most enriched pathway
[4]; ADAR1-depleted vs wild-type, after initial treatment
  persistence of enhanced interferon/ISG response: persisted as long as twenty-four days after initial treatment
[4]; CRC cells overexpressing ADAR1p150
  viral mimicry (expression of ISGs and dsRNA formation): rescues the ability of 5-AZA-CdR to induce viral mimicry
[5]
  MAVS activation (aggregation): enhanced MAVS activation
[6]
  expression of IFN stimulated genes (ISGs): enhanced upon ADAR1 depletion
